In BigSolDB 2.1:

Nc1ccc([N+](=O)[O-])cc1[N+](=O)[O-]
solubility (mole fraction)
Details | in acetone | in acetonitrile | in ethanol | in ethyl acetate | in isopropanol
278.15 K | 0.0281 | 0.00772 | 0.00126 | 0.0116 | 0.000854
280.65 K | 0.0304 | 0.00829 | 0.0014 | 0.0127 | 0.00097
283.15 K | 0.0328 | 0.00893 | 0.00154 | 0.0138 | 0.0011
285.65 K | 0.0355 | 0.0098 | 0.00173 | 0.0151 | 0.00125
288.15 K | 0.0381 | 0.0108 | 0.00193 | 0.0163 | 0.00142
290.65 K | 0.0407 | 0.0118 | 0.00211 | 0.0177 | 0.00159
293.15 K | 0.0437 | 0.0127 | 0.00232 | 0.0191 | 0.00177
295.65 K | 0.0467 | 0.0138 | 0.00254 | 0.0205 | 0.002
298.15 K | 0.0497 | 0.0149 | 0.00278 | 0.0221 | –
300.65 K | 0.0531 | 0.0161 | 0.00304 | 0.0238 | –
303.15 K | 0.0565 | 0.0174 | 0.00331 | 0.0257 | –
305.65 K | 0.0604 | 0.0188 | 0.00359 | 0.0278 | –
308.15 K | 0.0642 | 0.0203 | 0.00391 | 0.0301 | –
310.65 K | 0.0682 | 0.0216 | 0.00428 | 0.0324 | –
313.15 K | 0.0723 | 0.023 | 0.00468 | 0.035 | –
315.65 K | 0.0769 | 0.0247 | 0.00511 | 0.0374 | –
318.15 K | 0.0815 | 0.0264 | 0.00555 | 0.0403 | –
